PMC7993394 (Journal of Enzyme Inhibition and Medicinal Chemistry, 2021)

Target: T1, BpHldC (Burkholderia pseudomallei, UniProt Q63XZ4)
T1 construct: gene BPSL0395
Experiment: biochemical

T1 sequence (Q63XZ4 1-161 limits assumed): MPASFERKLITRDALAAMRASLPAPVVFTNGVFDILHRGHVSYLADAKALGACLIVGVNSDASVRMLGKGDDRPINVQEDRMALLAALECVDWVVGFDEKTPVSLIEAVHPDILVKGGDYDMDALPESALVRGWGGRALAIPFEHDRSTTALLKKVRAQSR

CCOC(=O)c1sc(NC(=O)CSc2nnc(Cc3ccccc3)o2)c(C#N)c1C [compound 7929959, ethyl 5-({[(5-benzyl-1,3,4-oxadiazol-2-yl)thio]acetyl}amino)-4-cyano-3-methyl-2-thiophenecarboxylate]
IC50: 10.9 µM

CCOC(=O)c1sc(NC(=O)CSc2nnc(-c3ccc(Cl)cc3)o2)c(C#N)c1C [compound 7933420, ethyl 5-[({[5–(4-chlorophenyl)-1,3,4-oxadiazol-2-yl]thio}acetyl)amino]-4-cyano-3-methyl-2-thiophene carboxylate]
IC50: 17.5 µM

CCOC(=O)c1sc(NC(=O)CSc2nnc(-c3ccccc3OCC)o2)c(C#N)c1C [compound 7991890, ethyl 4-cyano-5-[({[5–(2-ethoxyphenyl)-1,3,4-oxadiazol-2-yl]thio}acetyl)amino]-3-methyl-2-thiophenecarboxylate]
IC50: 47.1 µM
